System: T1, voltage-gated sodium channels (native Nav channels, isoform not identified)
T1 construct: native channels in isolated hippocampal CA1 pyramidal neurons
Test: whole-cell patch clamp of TTX-sensitive sodium current, steps from -110 to -10 mV
Assay type: cell-based, Rattus norvegicus

## CC(C)(C)c1ccc(CN2C3=NCCCCN3c3ccccc32)cc1 [DAB-19]
  IC50: 8.3 ± 1.4 µM
